The source of these data is PMC7662397, “p-Cymene Complexes of Ruthenium(II) as Antitumor Agents” (Molecules, 2020).

Usually IC50 stands for the midpoint of a concentration-inhibition curve.

Assay [1] deals with HeLa cells. Nature of the assay: MTT cytotoxicity assay, HeLa cells, 48 h. The class given is cell-based, human. As to conditions: read-out: IC50 (μM) HeLa. The source says:
(§1) Human cervical cancer cells (HeLa), human breast cancer cells (MCF-7) and green monkey kidney epithelial cells (BGM) were acquired from the American Type Culture Collection (ATCC, USA). The reason to choose human cervical cancer cells (HeLa) and human breast cancer cells (MCF-7) was to use a cell culture model that closely represented the human in vivo situation. The green monkey kidney epithelial cells (BGM) were chosen to compare cancer cells with healthy cells. Cell lines were maintained in Dulbecco’s Modified Eagle Medium (DMEM) with a low glucose content (1 g/L) supplemented with 10% (v/v) fetal bovine serum (FBS), 1 mM glutamax, 1% antibiotics (penicillin–streptomycin) and 1 mM pyruvate. In all cases, the cells were maintained at 37 °C in 5% CO2 atmosphere of 95% humidity. Cells were sub-cultured and the medium was changed once a week. In all cases, 0.25% trypsin, 0.25 mM ethylenediaminetetraacetic acid (EDTA) was used.
(§2) A total of 5 × 10^3 cells/well (200 µL of the culture medium described above) were seeded into a 96-well plate and incubated at 37 °C in a 5% CO2 and 95% humidity atmosphere for 24 h. […] Finally, a 200 µL aliquot of each of these last sixteen solutions was added to the wells. Cells were incubated at 37 °C for 48 h. The medium was then removed from the wells and 200 μL of MTT (3-(4,5-dimethylthiazol-2-yl)-2,5-diphenyltetrazolium bromide, 1 mg/mL final concentration) was added. After 4 h incubation in identical conditions, MTT was removed and 100 µL of dimethyl sulfoxide (DMSO) added. The absorbance at 560 nm was measured and recorded in a Fluostar Omega spectrophotometer.
(§3) Absorbances at each compound concentration were translated into inhibition percentages, I%, according to Equation (1):(1) I% = [1− AT/AC]×100 where AT and AC are the absorbance of treated and control cells, respectively.
(§4) The fitting was performed using GraphPad Prism v.8 software. All compounds were tested in three independent sets with triplicate points. The in vitro studies were performed in SACE (Support Service for Experimental Sciences, University of Murcia, Murcia, Spain) with biosecurity Level 2.
(Tetrazolium dyes change colour on reduction, which living cells bring about.)

The subject of assay [2] is MCF-7 cells. Nature of the assay: MTT cytotoxicity assay, MCF-7 cells, 48 h. Format: cell-based, human. As to conditions: read-out: IC50 (μM) MCF-7.
Source text: as §1, §2, §3, §4

Assay [3] has as its system BGM cells. Nature of the assay: MTT cytotoxicity assay, BGM cells, 48 h. The class given is cell-based, green monkey. As to conditions: read-out: IC50 (μM) BGM.
Source text: as §1, §2, §3, §4

Assay [4] deals with HeLa cells. Details: method as in PMID 29880783. As to conditions: cisplatin value from the literature; cited from earlier work.
Assay [5] concerns MCF-7 cells. As to conditions: cisplatin value from the literature; cited from earlier work.
Assay [6] concerns BGM cells. As to conditions: cisplatin value from the literature; cited from earlier work.
Setting [7] is: human cervical cancer cells, 48 h exposure, MTT.
Setting [8] is: MCF7, human breast cancer cells, 48 h exposure, MTT.
Where [9] appears, read: Chlorocebus sabaeus, BGM, healthy green monkey kidney epithelial cells, 48 h exposure, MTT.
Where [10] appears, read: human breast cancer cells, 48 h exposure, MTT.
Setting [11] is: healthy green monkey kidney epithelial cells, 48 h exposure, MTT.

Read-outs that look alike come from different tables or passages of the source.

Turning to `Nc1ccc(O)cc1` [L = 4-aminophenol, 4-aminophenol], the IC50 with HeLa cells [1] (setting [7]), in the assay on MCF-7 cells [2] (setting [8]) and with BGM cells [3] (setting [9]) was above 250 µM in each case.

Turning to `N.N.[Cl][Pt][Cl]` [cisplatin], the IC50 with HeLa cells [4] is 67.6 ± 2 µM; in the assay with MCF-7 cells [5], 7.15 ± 0.1 µM; in the assay on BGM cells [6] it was 5.45 ± 0.2 µM.

In the case of `Cc1ccc(C(C)C)cc1.Nc1ccc(O)cc1.[Cl][Ru][Cl]` [Complex III], the IC50 worked out at 171 ± 2.1 µM in the assay on HeLa cells [1] (setting [7]), 75.8 ± 2.3 µM in the assay with MCF-7 cells [2] (setting [10]) and 59.6 ± 1.9 µM with BGM cells [3] (setting [11]).

As to `Nc1ccccc1O` [L = 2-aminophenol, 2-aminophenol], the IC50 was above 250 µM with HeLa cells [1] (setting [7]), 131.3 ± 0.15 µM with MCF-7 cells [2] (setting [8]) and above 250 µM in the assay on BGM cells [3] (setting [9]).

For `Cc1ccc(C(C)C)cc1.[Cl][Ru][Cl].c1ccnnc1` [Complex IV], the IC50 in the assay on HeLa cells [1] (setting [7]), in the assay on MCF-7 cells [2] (setting [10]) and with BGM cells [3] (setting [11]) was above 250 µM throughout.

On to `Cc1ccc(C(C)C)cc1.F[P-](F)(F)(F)(F)F.Nc1ccccc1O.Nc1ccccc1O.[Cl][Ru+]` [Complex VI], for which the IC50 in the assay with HeLa cells [1] (setting [7]) turned out to be 57.6 ± 4 µM; in the assay on MCF-7 cells [2] (setting [10]), 24.9 ± 4.3 µM; with BGM cells [3] (setting [11]) it was 95 ± 1.7 µM.

Consider `c1ccnnc1` [Pyridazine], for which the IC50 with HeLa cells [1] (setting [7]), with MCF-7 cells [2] (setting [8]) and in the assay with BGM cells [3] (setting [9]) was above 250 µM throughout.

Consider `N#Cc1ccncc1` [4-cyanopyridine], for which the IC50 in the assay on HeLa cells [1] (Homo sapiens, 48 h) was above 250 µM; with MCF-7 cells [2] (Homo sapiens, MCF7, 48 h), above 250 µM; in the assay with BGM cells [3] (Chlorocebus sabaeus, BGM, 48 h), above 250 µM.

As to `Cc1ccc(C(C)C)cc1.Nc1ccccc1O.[Cl][Ru][Cl]` [Complex II], the figures for the IC50 with HeLa cells [1] (setting [7]), in the assay on MCF-7 cells [2] (setting [10]) and in the assay with BGM cells [3] (setting [11]) were 82.9 ± 0.67 µM, 28.7 ± 1.8 µM and above 250 µM, respectively.

In the case of `Cc1ccc(C(C)C)cc1.N#Cc1ccncc1.[Cl][Ru][Cl]` [Complex I], the IC50 in the assay with HeLa cells [1] (setting [7]), in the assay with MCF-7 cells [2] (setting [10]) and in the assay with BGM cells [3] (setting [11]) was above 250 µM each time.
